Data set [1] relates to Mus musculus. The data set is described as follows: Anticonvulsant activity in mouse assessed as inhibition of maximal electroshock induced seizure at 200 mg/kg,po administration for 120 mins. The data set is classed as functional. The settings on record: 2 h. (Protection in the maximal electroshock model is a classic sign of anticonvulsant action.)
Data set [2] concerns Mus musculus. The data set is described as follows: Anticonvulsant activity in Albino mouse assessed as protection against maximal electroshock induced seizure at ip administration. It is filed as functional.
Data set [3] deals with Mus musculus. The data set is described as follows: Anticonvulsant activity in Albino mouse assessed as protection against Sc-PTZ induced seizure at ip administration. The data set is classed as functional.
The nature of data set [4]: Protective index, ratio of TD50 for toxicity in Albino mouse assessed as median neurotoxicity dose at ip administration by rotorod test to ED50 for anticonvulsant activity in Albino mouse assessed as protection against maximal electroshock induced seizure at ip administration. It is filed as organism-based. The settings on record: in vivo, read-out: Ratio TD50/ED50. A general note: In the rotarod test animals must keep their balance on a rotating rod.

Data set [5] in a line: Protective index, ratio of TD50 for toxicity in Albino mouse assessed as median neurotoxicity dose at ip administration by rotorod test to ED50 for anticonvulsant activity in Albino mouse assessed as protection against Sc-PTZ induced seizure at ip administration. The data set is classed as organism-based. The settings on record: in vivo, read-out: Ratio TD50/ED50.
Data set [6] deals with Mus musculus. The data set is described as follows: Anticonvulsant activity in Albino mouse brain assessed as increase in GABA level at 30 to 300 mg/kg,ip by spectrophotometric method. It is filed as functional. Particulars: dose 30-300 mg/kg.
Data set [7] is described as follows: Protective index, ratio of TD50 for toxicity in Sc-PTZ induced Swiss albino mouse seizure model assessed as median neurotoxicity dose at po administration by rotorod test to ED50 for anticonvulsant activity in Swiss albino mouse assessed as protection against Sc-PTZ induced seizure at po administration. It is filed as organism-based. The settings on record: in vivo, read-out: Ratio TD50/ED50.

For data set [8], the system named is Mus musculus. Kind of data set: Anticonvulsant activity in Swiss mouse assessed as protection against Sc-PTZ induced seizure at ip administration. It is filed as functional.
In data set [9] the test system is Mus musculus. The data set is described as follows: Anticonvulsant activity against bicuculline induced Swiss mouse seizure model assessed as inhibition of tonic seizures at 50 mg/kg,ip administration for 30 mins. The data set is classed as functional. The settings on record: 0.5 h.
Data set [10] deals with Mus musculus. Kind of data set: Anticonvulsant activity against bicuculline induced Swiss mouse seizure model assessed as inhibition of clonic seizures at 50 mg/kg,ip administration for 30 mins. The settings on record: 0.5 h. The data set is classed as functional.
The nature of data set [11]: Toxicity in bicuculline induced Swiss mouse seizure model assessed as death at 50 mg/kg,ip administration for 30 mins. The data set is classed as organism-based. Particulars: in vivo, read-out: Activity.
For data set [12], the system named is Mus musculus. The data set is described as follows: Anticonvulsant activity against 3-MP induced Swiss mouse seizure model assessed as inhibition of tonic seizures at 50 mg/kg,ip administration for 30 mins. The data set is classed as functional. Particulars: 0.5 h.
The subject of data set [13] is Mus musculus. The data set is described as follows: Anticonvulsant activity against 3-MP induced Swiss mouse seizure model assessed as inhibition of clonic seizures at 50 mg/kg,ip administration for 30 mins. The settings on record: 0.5 h. The data set is classed as functional.
The nature of data set [14]: Toxicity in 3-MP induced Swiss mouse seizure model assessed as death at 50 mg/kg,ip administration for 30 mins. The data set is classed as organism-based. Particulars: in vivo, read-out: Activity.
The nature of data set [15]: Toxicity in Swiss CD-1 mouse assessed as mortality at 100 mg/kg,ip. It is filed as organism-based. Particulars: in vivo.
The test system of data set [16] is Mus musculus. The data set is described as follows: Anticonvulsant activity in Swiss albino mouse assessed as inhibition of maximal electroshock induced seizure at ip administration. It is filed as functional.
The subject of data set [17] is Mus musculus. Kind of data set: Anticonvulsant activity in mouse assessed as protection against maximal electroshock induced seizure at ip administration for 5 mins. It is filed as functional.
In data set [18] the test system is Mus musculus. Kind of data set: Anticonvulsant activity in Swiss albino mouse assessed as protection against Sc-PTZ induced seizure at po administration. The data set is classed as functional.
Data set [19] in a line: Toxicity in Swiss albino mouse assessed as lethality at 30 mg/kg,ip. It is filed as organism-based. The settings on record: in vivo, read-out: Activity.
Data set [20] deals with Rattus norvegicus. Kind of data set: Anticonvulsant activity in Wistar rat assessed as protection against maximal electroshock induced seizure at po administration. It is filed as functional.
A short description of data set [21]: Displacement of 3[H]BTX from rat cerebral cortical synaptosomes voltage-sensitive sodium channel incubated for 1.5 hrs by scintillation counting analysis. The data set is classed as subcellular, Cerebral cortex, Synaptosome.
For data set [22], the species on record is Rattus norvegicus. Kind of data set: Inhibition of sodium uptake in rat cerebral cortical synaptosomes at 30 uM incubated for 30 mins by scintillation counting analysis. The data set is classed as functional. Particulars: Cerebral cortex, Synaptosome.
For data set [23], the species on record is Rattus norvegicus. Kind of data set: Inhibition of sodium uptake in rat cerebral cortical synaptosomes at 100 uM incubated for 30 mins by scintillation counting analysis. It is filed as functional. Particulars: Cerebral cortex, Synaptosome.
The species entered for data set [24] is Rattus norvegicus. Kind of data set: Inhibition of sodium uptake in rat cerebral cortical synaptosomes at 300 uM incubated for 30 mins by scintillation counting analysis. It is filed as functional. The settings on record: Cerebral cortex, Synaptosome.
Data set [25] deals with Mus musculus. Kind of data set: Anticonvulsant activity in Swiss albino mouse brain assessed as increase in GABA level at 30 mg/kg,ip measured after 7 days of post-administration by spectrophotometric method. The settings on record: time 7 day. The data set is classed as functional.
The test system of data set [26] is Mus musculus. The data set is described as follows: Anticonvulsant activity in Swiss albino mouse brain assessed as increase in GABA level at 30 mg/kg,ip measured after 2 hrs of post-administration by spectrophotometric method. The data set is classed as functional.
The subject of data set [27] is Mus musculus. Kind of data set: Anticonvulsant activity in Swiss albino mouse assessed as protection against maximal electroshock induced seizure at ip administration. It is filed as functional.
Data set [28] deals with Mus musculus. The data set is described as follows: Anticonvulsant activity in Swiss albino mouse assessed as protection against Sc-PTZ induced seizure at ip administration. The data set is classed as functional.
Data set [29] can be described thus: Toxicity in Swiss albino mouse assessed as median toxicity dose at ip administration. The data set is classed as organism-based. Particulars: in vivo.
Data set [30] is described as follows: Displacement of 3[H]BTX from rat brain membrane voltage-sensitive sodium channel incubated for 1.5 hrs by scintillation counting analysis. It is filed as cell membranes.

Results on 20 compounds are retold here after ChEMBL document CHEMBL5241104, “Reactive metabolites of the anticonvulsant drugs and approaches to minimize the adverse drug reaction” (Eur J Med Chem, 2021).

For `CNS(=O)(=O)OC[C@]12OC[C@@H]3OC(C)(C)O[C@@H]3C1OC(C)(C)O2` (some centres undefined), in data set [1], the inhibition in vivo at 200 mg/kg is no less than 80%. As to `CN(C)c1ccc(/C=N/Nc2nnc(-c3ccccc3)nc2Cc2ccc(Cl)cc2)cc1`, the ED50 came to 46 mg/kg in data set [2] and 83.9 mg/kg in [3]. Moreover, the selectivity ratio turned out to be 7.82 in [4] and 4.29 in [5]. Besides, the Activity in data set [6] came out at 37.3 mg. In the case of `C=CCC(CC(C)C)C(=O)O` (racemic), the selectivity ratio in [7] is 3.2.

On to `NC(=O)N1c2ccccc2C=Cc2ccccc21` [CARBAMAZEPINE], for which the ED50 in data set [8] is greater than 100 mg/kg. The inhibition in vivo at 50 mg/kg in [9] was found to be 0%; in data set [10], 100%; in data set [12], 0%; in data set [13], 80%. Also, the mortality at 0.5 h in data set [11] came out at 40%; in [14] it was 90%. For the compound `COc1ccccc1N1CCN(CCCN2CCCC2=O)CC1`, the mortality in [15] is 25%. `COc1ccc(/C=C2/N=C(c3ccccc3)c3cc([N+](=O)[O-])ccc3NC2=O)cc1O`: the “inhibition (INH)” value in [16] stood at 70%.

Regarding `O=C(NC1CCCCC1)C(c1ccc(F)cc1)N1Cc2cnnn2-c2ccccc2C1=O` (centres undefined), the Activity in data set [17] worked out at 87.5%.

Turning to `O=C(NC1CCCCC1)C(c1ccc(Cl)cc1)N1Cc2cnnn2-c2ccccc2C1=O` (centres undefined), in [17], the Activity is recorded as 100%. As to `O=C(O)CCCCCn1c(-c2ccccc2)nc(-c2ccccc2)c1-c1ccccc1`, in data set [18], the Activity turned out to be 100%. Regarding `O=C1Nc2ccccc2C12Nc1ccccc1-c1nc(=O)c(-c3ccccc3)nn12` (centres undefined), the mortality in data set [19] turned out to be 30%. For the compound `CCCC(CCC)C(=O)[O-].[Na+]` [VALPROATE SODIUM], the Activity in data set [18] is 83%. In addition, the ED50 in data set [8] is 149 mg/kg.

In the case of `CC(=O)OC1Cc2ccccc2N(C(N)=O)c2ccccc21` (centres undefined), the Activity in [20] was 54.4%. Besides, the IC50 in data set [21] was 138 µM. The inhibition in data set [22] was 42.2%; in data set [23], 61.8%; in data set [24], 82.1%. With `COc1cc(C2CC(c3ccc(O)cc3)=NC(=S)N2C2=NC(=O)NNC2)ccc1O` (centres undefined), the Activity in data set [25] stood at 91.47 µg; in [26], 86.17 µg. The ED50 in data set [27] is 29.4 mg/kg; in [28], 293 mg/kg. In addition, in data set [29], the TD50 turned out to be 412 mg/kg. Consider `O=C1Nc2ccc(Br)cc2C12Nc1ccccc1-c1nc(=O)c(-c3ccccc3)nn12` (centres undefined), for which the mortality in data set [19] was 30%. `C=C(C)CC(CCC)C(=O)O` (racemic): the selectivity ratio in data set [7] was determined as 2.05. In data set [30], `NC(=O)N1c2ccccc2CC([N+](=O)[O-])c2ccccc21` (centres undefined) registered an IC50 of 2290 µM.

Regarding `CCCC(CCC)C(=O)N/N=C/c1ccncc1`, in [29], the TD50 came to 346 mg/kg. `COc1ccc(NC(=O)CN2C(=O)C3(Nc4ccccc4-c4nc(=O)c(C)nn43)c3ccccc32)cc1` (centres undefined): the mortality in data set [19] was 20%. In the case of `CC1(C)O[C@@H]2O[C@@]3(COS(N)(=O)=O)OC(C)(C)OC3[C@@H]2O1` (some centres undefined), the inhibition in vivo at 200 mg/kg in data set [1] is no less than 80%. As for `CCCC(CCC)C(=O)N/N=C/c1cc(OC)ccc1OC`, the TD50 in data set [29] worked out at 457 mg/kg.

The inhibition in vivo is how much of the control response was suppressed. As usually defined, the ED50 is the dose at which the effect has come halfway, by size or by number of responders. The term IC50 denotes the concentration needed to halve the response being measured. Low readings indicate greater potency in that assay, high ones weaker potency in that assay. What is called inhibition is the relative decrease from the control value, in per cent. Broadly, the TD50 is the dose at which the toxic effect under study appears in half of the subjects.
